Laboratory results reported in ChEMBL document CHEMBL1134457, “Medicinal chemistry of neuronal voltage-gated sodium channel blockers” (J Med Chem, 2001).

Legend:
[1] = Inhibition of [3H]BTX binding to cardiac voltage-gated sodium channel; set-up: species or system Rattus norvegicus
Rattus norvegicus [2] = organism: Rattus norvegicus; test: Neuroprotective activity was determined in the rat middle cerebral artery occlusion (MCAO) model of focal stroke; assay type: functional; conditions: read-out: MED
Rattus norvegicus [3] = organism: Rattus norvegicus; test: Minimum effective dose (MED) was determined in the rat middle cerebral artery occlusion (MCAO) model of focal stroke […]; assay type: functional; conditions: read-out: MED
Rattus norvegicus [4] = organism: Rattus norvegicus; test: Minimum effective dose was determined in the rat middle cerebral artery occlusion (MCAO) model of focal stroke […]; assay type: functional; conditions: read-out: MED
[5] = Inhibition of veratridine-induced guanidine flux in cardiac voltage-gated sodium channel (veratridine block vs. Na release); assay type: functional, tissue-based, Rattus norvegicus, Heart
[6] = molecular target: GABA-A receptor; anion channel; test: Anticonvulsant activity against gamma-aminobutyric acid receptor; assay type: functional
Rattus norvegicus [7] = test: In vivo anticonvulsant activity to prevent seizures from maximum electroshock (MES) […]; assay type: functional
[8] = Inhibition of [3H]-BTX binding to cardiac voltage-gated sodium channel; assay type: functional, Rattus norvegicus
[9] = In vivo toxic dose in rotarod assay; assay type: ADME, organism-based; conditions: rat
Gerbillinae = test: Neuroprotective activity was determined in the rat middle cerebral artery occlusion (MCAO) model of focal stroke in gerbil; assay type: functional; conditions: read-out: MED
Rattus norvegicus [10] = test: In vivo anticonvulsant activity to prevent seizures from maximum electroshock (MES) […] after (i.v.) administration; assay type: functional; conditions: iv
[11] = Potency against voltage-gated calcium channel [45[Ca2+]]; assay type: functional
Rattus norvegicus [12] = organism: Rattus norvegicus; test: Neuroprotective activity was determined in the rat middle cerebral artery occlusion (MCAO) model of focal stroke using rotarod assay; assay type: functional; conditions: read-out: MED
[13] = Effective dose was determined after intraperitoneal administration in the MES model; assay type: functional; conditions: Rattus norvegicus, ip

Compound	IC50 [1] [nM]	minimal effective dose (Rattus norvegicus [2]) [mg/kg]	IC50 [5] [nM]	ED50 (Rattus norvegicus [7]) [mg/kg]	other results
Cc1cccc(C)c1NC(=O)Nc1ccncc1	29000	–	–	–	–
CC(Cc1ccccc1)(NC(=O)CN)c1ccccc1 (stereo unspecified) [REMACEMIDE]	–	10	–	–	minimal effective dose (Rattus norvegicus [3]): 100 mg/kg
CN1CCN(c2ncc(-c3cc(Cl)cc(Cl)c3Cl)c(N)n2)CC1 [SIPATRIGINE]	–	30	5300	–	minimal effective dose (Rattus norvegicus [4]): 60 mg/kg
NS(=O)(=O)Cc1noc2ccccc12 [ZONISAMIDE]	–	100	–	–	–
CCC1(Cc2ccccc2)CCCNC1=O (stereo unspecified)	–	–	–	–	IC50 [6]: 487000 nM
Cc1cccc(C)c1OCC(C)N (stereo unspecified) [MEXILETINE]	–	–	–	2	–
Cc1cccc(C)c1NC(=O)/C=C1/SCC(=O)N1C	25000	–	–	2.8	–
Nc1nccc2c1nnn2Cc1c(F)cccc1F	–	–	–	6.3	–
Cc1nc(OCCCCCN2CCCCC2)cc(-c2ccc(F)cc2)n1 [ENECADIN]	–	0.5	7700	–	IC50 [8]: 1000 nM
CN(c1nc2ccccc2s1)C1CCN(C[C@H](O)COc2ccc(F)c(F)c2)CC1 [LUBELUZOLE]	280	0.3	–	–	–
Nc1cnc(-c2cc(Cl)cc(Cl)c2Cl)c(N)n1 [ELPETRIGINE]	–	–	–	1.13	TD50 [9]: 18.8 mg/kg
Nc1nnc(-c2cccc(Cl)c2Cl)c(N)n1 [LAMOTRIGINE]	114000	20	21000	2.2	TD50 [9]: 84 mg/kg
COc1ccc(/N=C(\N)Nc2ccc3c4c(cccc24)CC3)c2ccccc12	–	–	1640	–	minimal effective dose (Gerbillinae): 30 mg/kg
COc1ccc(CN2CCN(C(c3ccc(F)cc3)c3ccc(F)cc3)CC2)c(OC)c1OC [LOMERIZINE]	26	–	–	–	–
Cc1ccc(-c2nc(C)c(CN3CCN(C(c4ccc(F)cc4)c4ccc(F)cc4)CC3)[nH]2)cc1	119	–	300	–	–
CN(C)CCOc1ccccc1-c1nc(-c2ccccc2)no1	–	–	–	2.8	–
CCCN(c1ccncc1)n1ccc2ccccc21 [BESIPIRDINE]	5500	–	30000	–	–
COC(=O)c1[nH]cc(-c2ccc(Br)cc2)c1N1CCOCC1	–	–	–	2.5	TD50 [9]: > 500 mg/kg
NC(=O)NNCc1ccc(Oc2ccc(F)cc2)cc1	–	–	–	4.2	–
C[C@H](C(N)=O)N1CCC23CCCC[C@@H]2[C@@H]1Cc1ccc(OCc2cccc(F)c2)cc13 (single isomer, unassigned)	–	–	–	18.1	–
OC(COc1ccccc1)CN1CCC(c2ccc(Oc3ccccc3)cc2)CC1 (stereo unspecified)	–	3	220	–	–

Compound	IC50 [1] [nM]	minimal effective dose (Rattus norvegicus [2]) [mg/kg]	IC50 [5] [nM]	ED50 (Rattus norvegicus [7]) [mg/kg]	other results
CCOc1ccccc1OCCN1CCC2(CC)c3cccc(O)c3CC1C2(C)C (stereo unspecified)	–	2	–	–	–
Cc1cccc(C)c1N1C(=O)c2ccc(N)cc2C1=O	110	–	–	–	–
COC(=O)[C@@H]1C(=O)C=C(Nc2ccc(Cl)cc2)C[C@H]1C	–	–	–	26.2	TD50 [9]: 255 mg/kg
N=c1sc2ccccc2n1CCN1CCC(c2ccc(F)cc2)CC1	–	16	–	3.9	–
O=C1NC(=O)C(c2ccccc2)(c2ccccc2)N1 [PHENYTOIN]	40000	200	21000	–	ED50 (Rattus norvegicus [10]): 10 mg/kg
Nc1ncnnc1-c1cc(Cl)cc(Cl)c1Cl	–	–	–	1.7	TD50 [9]: 40 mg/kg
CCN(CC)CC(=O)Nc1c(C)cccc1C [LIDOCAINE]	113000	–	97000	87	TD50 [9]: 41 mg/kg
Fc1ccc(C(c2ccc(F)cc2)N2CCN(C/C=C/c3ccccc3)CC2)cc1 [FLUNARIZINE]	350	–	120	–	–
CCC(C)c1ccc(N2CCCN(c3ccc(C(C)CC)cc3)C2=N)cc1 (stereo unspecified)	–	–	60	–	IC50 [11]: 390 nM
COc1ccccc1OCCNCC(O)COc1cccc2[nH]c3ccccc3c12 (stereo unspecified) [CARVEDILOL]	1700	–	306	–	–
Nc1nc2ccc(OC(F)(F)F)cc2s1 [RILUZOLE]	–	4	4000	–	minimal effective dose (Rattus norvegicus [12]): 30 mg/kg
Nc1ncc(-c2cc(Cl)cc(Cl)c2Cl)c(N)n1	–	20	1600	–	–
NC(=O)C12NC(Cc3ccccc31)c1ccccc12 (stereo unspecified)	–	–	–	8.9	–
NC1CCc2c(-c3ccccc3)[nH]c3cccc1c23 (stereo unspecified)	1100	–	4100	–	–
COc1ccc(CCN(C)CCCC(C#N)(c2ccc(OC)c(OC)c2)C(C)C)cc1OC (stereo unspecified)	2500	–	2500	–	–
CC1(C)O[C@@H]2[C@@H](CO[C@@]3(COS(N)(=O)=O)OC(C)(C)O[C@@H]23)O1 [TOPIRAMATE]	–	–	–	39	–
Clc1ccc(-c2c[nH]nc2N2CCOCC2)cc1	–	–	–	–	ED50 [13]: 47 mg/kg
CC(NCc1ccc(OCc2cccc(F)c2)cc1)C(N)=O (stereo unspecified)	–	–	–	4.1	–
CC1CCCC(C)N1CCCNC(=O)C(c1ccccc1)c1ccccc1 (stereo unspecified)	46	–	5000	–	–
NC(=O)N1c2ccccc2C=Cc2ccccc21 [CARBAMAZEPINE]	131000	2	30000	3.4	TD50 [9]: 27.4 mg/kg
Cc1cccc(C)c1NC(=O)c1ccc(N)cc1 [AMELTOLIDE]	–	–	–	13	–
